Read-outs that look alike come from different tables or passages of the source.
Columns and labels:
[1] = biological target: alcohol oxidase (Pichia pastoris) (Komagataella phaffii, UniProt P04842); details: Pichia pastoris enzyme
Method: (§1) The Michaelis-Menten constant (KM) of an enzyme can be determined in an aqueous environment from the initial reaction rate of the enzyme catalyzed reaction, by either calorimetric or electrochemical analysis. The initial reaction rate was determined using both methods, based on the results obtained for different concentrations of methanol and ethanol and various alcohol oxydases (Hansenula sp., Pichia pastoris and Candida boidinii). Using the Hanes method (diagram of the concentration/initial rate as a function of the initial concentration of the substrate in the reaction medium), the KM can be calculated, which corresponds to the origin of the straight line, opposite the abscissa.

[2] = biological target: alcohol oxidase (Candida boidini) (Candida boidinii, UniProt Q00922); details: Candida boidini enzyme, electrochemistry
[3] = system: alcohol oxidase (Hansenula sp.); test: KM by the Hanes method, electrochemistry, alcohol oxidase of Hansenula sp.; format: biochemical; details: Hansenula sp. enzyme
Method: as §1

alcohol oxidase = biological target: T1, alcohol oxidase (Komagataella phaffii, UniProt P04842); test: Tests to improve the observed signals: effect of SDS on enzyme activity; format: biochemical; details: SDS 0.1%
T1 construct: purchased Sigma A-2404
T1 sequence (P04842 1-663): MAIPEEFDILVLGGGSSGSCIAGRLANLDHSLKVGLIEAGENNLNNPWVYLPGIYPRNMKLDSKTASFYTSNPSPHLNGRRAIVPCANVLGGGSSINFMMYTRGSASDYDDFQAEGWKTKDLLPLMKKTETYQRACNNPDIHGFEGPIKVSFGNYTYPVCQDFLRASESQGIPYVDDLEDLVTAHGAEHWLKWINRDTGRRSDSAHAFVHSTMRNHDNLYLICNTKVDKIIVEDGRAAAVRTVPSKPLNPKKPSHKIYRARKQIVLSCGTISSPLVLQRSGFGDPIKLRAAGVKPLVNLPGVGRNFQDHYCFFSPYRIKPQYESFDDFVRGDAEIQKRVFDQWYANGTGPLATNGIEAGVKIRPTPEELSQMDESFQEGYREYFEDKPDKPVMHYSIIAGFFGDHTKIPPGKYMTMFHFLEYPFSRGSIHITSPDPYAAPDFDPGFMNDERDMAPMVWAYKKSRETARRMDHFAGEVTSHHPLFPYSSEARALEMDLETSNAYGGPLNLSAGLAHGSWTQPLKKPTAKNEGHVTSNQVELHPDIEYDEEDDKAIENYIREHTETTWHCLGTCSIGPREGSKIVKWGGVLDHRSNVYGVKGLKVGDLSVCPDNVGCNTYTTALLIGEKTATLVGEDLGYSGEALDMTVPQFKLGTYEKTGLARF
Method: Tests aiming to improve the observed signals were carried out. Low concentrations of SDS (0.1%) allow for a uniform deposit of a sample on the surface of the working electrode, while simultaneously increasing the enzyme activity by a factor of 110%.

Chain of alcohol oxidase (Candida boidini) (Q00922 2-663 limits assumed): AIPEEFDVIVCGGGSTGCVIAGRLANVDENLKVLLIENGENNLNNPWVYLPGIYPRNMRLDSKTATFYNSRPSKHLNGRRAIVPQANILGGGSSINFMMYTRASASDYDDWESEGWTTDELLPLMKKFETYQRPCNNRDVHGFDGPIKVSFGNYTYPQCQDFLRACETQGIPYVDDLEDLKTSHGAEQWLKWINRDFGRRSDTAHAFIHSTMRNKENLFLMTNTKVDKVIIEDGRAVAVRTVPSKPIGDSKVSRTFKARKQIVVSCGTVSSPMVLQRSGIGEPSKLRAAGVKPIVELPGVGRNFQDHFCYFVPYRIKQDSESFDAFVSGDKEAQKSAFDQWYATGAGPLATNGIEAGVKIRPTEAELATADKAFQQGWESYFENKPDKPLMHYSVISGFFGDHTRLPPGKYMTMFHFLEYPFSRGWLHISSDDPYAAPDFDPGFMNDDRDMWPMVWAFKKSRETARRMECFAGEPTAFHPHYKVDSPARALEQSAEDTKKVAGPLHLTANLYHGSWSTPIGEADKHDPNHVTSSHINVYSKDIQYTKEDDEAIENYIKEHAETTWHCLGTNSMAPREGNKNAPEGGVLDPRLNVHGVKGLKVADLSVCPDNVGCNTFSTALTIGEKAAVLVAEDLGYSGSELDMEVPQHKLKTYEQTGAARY

In the case of `CCO` [EtOH, ethanol], the Km ([1]; read-out: KM EtOH, [EtOH] 0.05-3.3 mM, colorimetry) is reported as 3460 µM, the Km ([1]; read-out: KM EtOH, [EtOH] 0.25-5.0 mM, electrochemistry) is reported as 2610 µM and the Km ([1]; read-out: KM EtOH, [EtOH] 2.5-10.0 mM, electrochemistry) is reported as 2910 µM. For the same compound, the Km ([2]; read-out: KM EtOH, [EtOH] 0.25-1.25 mM) was 8410 µM and the Km ([3]; [EtOH] 0.25-5.0 mM, read-out: KM EtOH) was 6000 µM.
In the case of `CO` [MeOH, methanol], the Km ([1]; read-out: KM MeOH, [MeOH] 0.02-2.5 mM, colorimetry) is reported as 640 µM, the Km ([1]; read-out: KM MeOH, [MeOH] 0.05-2.5 mM, electrochemistry) is reported as 310 µM and the Km ([1]; read-out: KM MeOH, [MeOH] 0.125-1.0 mM, electrochemistry) is reported as 560 µM. It also gave a Km ([2]; read-out: KM MeOH, [MeOH] 0.05-0.5 mM) of 290 µM and a Km ([3]; [MeOH] 0.05-2.5 mM, read-out: KM MeOH) of 390 µM.
In the case of `CCCCCCCCCCCCOS(=O)(=O)[O-].[Na+]` [SDS], the “increasing the enzyme activity by a factor of” value (alcohol oxidase) is reported as 110%.

From patent US20060099666A1, “Analyzer for the simultaneous enzymatic detection of closely related analytes” (Medinov, Inc., priority 2002, published 2006)
